Assay results published in PMC7529893, “Structural basis for substrate recognition and chemical inhibition of oncogenic MAGE ubiquitin ligases” (Nature Communications, 2020).
Like-named read-outs stand apart in the source and are kept apart here.

Biological target: T1, MAGE-A11:PCF11 interaction (GST-MAGE-A11 MHD and FAM-PCF11_4) (Homo sapiens, UniProt P43364)
T1 construct: GST-MAGE-A11 MHD (human MAGE-A11 MHD amino acid 218-429); made in house; host or cells: E. coli BL21(DE3)
T1 sequence (P43364 218-429): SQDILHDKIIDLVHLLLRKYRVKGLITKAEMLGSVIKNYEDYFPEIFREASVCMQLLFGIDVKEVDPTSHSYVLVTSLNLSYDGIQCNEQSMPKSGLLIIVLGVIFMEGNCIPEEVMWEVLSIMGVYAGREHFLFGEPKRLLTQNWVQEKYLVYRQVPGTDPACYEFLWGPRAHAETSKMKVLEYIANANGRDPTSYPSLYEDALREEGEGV
Test: TR-FRET dose response test of compounds for disruption of MAGE-A11:PCF11 binding
Method in brief: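 Competition of compounds against binding of FAM-PCF11_4 peptide to GST-MAGE-A11 MHD, detected with Tb-anti-GST, in 50 mM Tris pH 7.5, 20 mM MgCl2, 0.1 mg/ml BSA, 1 mM DTT. 90 min at ~25 °C; 520/490 nm emission ratio (340 nm excitation) fitted for IC50.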

[1] = Supplementary Data 3, 59 quinoline compounds, read-out: TR-FRET IC50
[2] = Dose response TR-FRET screening of nine scaffold groups against MAGE-A11:PCF11, read-out: consensus IC50

| SMILES | IC50 [2] [µM] | other results |
| --- | --- | --- |
| Cc1ccc(F)cc1CN(CCCCNc1ccnc2cc(Cl)ccc12)Cc1ccccc1 [SJ000520449-1, Cc1ccc(F)cc1CN(CCCCNc2ccnc3cc(Cl)ccc23)Cc4ccccc4] |  | IC50 [1]: > 70 µM |
| FC(F)(F)c1ccc(-c2ccc3c(NCCCNCc4cccc5c4OCO5)ccnc3c2)cc1 [SJ000311280-01] |  | IC50 (Supplementary Data 4, read-out: TR-FRET, IC50): 4.07 µM |
| Cc1ccccc1NC1=C(N)C(=O)c2ccccc2C1=O [SJ000562551-1] | > 70 |  |
| NC1=C(Nc2ccccc2)C(=O)c2ccccc2C1=O [SJ000562543-1] | 60.8 |  |
| Cc1cc(C)cc(NC2=C(N)C(=O)c3ccccc3C2=O)c1 [SJ000562641-1] | 55 |  |
| CN(C)c1cccc(Oc2ccc3c(NCCCNCc4ccco4)ccnc3c2)c1 [SJ000311230-1, CN(C)c1cccc(Oc2ccc3c(NCCCNCc4occc4)ccnc3c2)c1] |  | IC50 [1]: > 70 µM |
| Cc1ccc(S(=O)(=O)N2CCN(C3=C(Cl)C(=O)c4ccccc4C3=O)CC2)cc1 [SJ000021282-1] | 10.4 |  |
| Cc1cc(C)c(CN(CCCNc2ccnc3cc(Cl)ccc23)Cc2ccccc2)c(C)c1 [SJ000361169-2, Cc1cc(C)c(CN(CCCNc2ccnc3cc(Cl)ccc23)Cc4ccccc4)c(C)c1] |  | IC50 [1]: > 70 µM |
| c1coc(CNCCCNc2ccnc3cc(C4CCCCC4)ccc23)c1 [SJ000311262-1, C(CNCc1occc1)CNc2ccnc3cc(ccc23)C4CCCCC4] |  | IC50 [1]: > 70 µM |
| Cc1cc(C)c(C2Nc3ccccc3C(=O)N2CCCN2CCOCC2)cc1C (centres unmarked) [SJ000803761-1] | 62.3 |  |
| Clc1cccc(-c2ccc(CNCCCNc3ccnc4cc(Cl)ccc34)o2)c1 [SJ000523069-1, Clc1cccc(c1)c2oc(CNCCCNc3ccnc4cc(Cl)ccc34)cc2] |  | IC50 [1]: > 70 µM |
| FC(F)(F)c1ccc2c(NCCCNCc3ccc4[nH]ccc4c3)ccnc2c1 [SJ000521054-1] | 0.397 |  |
| CCCN(CCCNc1ccnc2cc(C(F)(F)F)ccc12)Cc1ccccc1OC [SJ000523072-1, CCCN(CCCNc1ccnc2cc(ccc12)C(F)(F)F)Cc3ccccc3OC] |  | IC50 [1]: > 70 µM |
| O=C1c2ccccc2NC(c2ccc(F)c(F)c2)N1CCCN1CCOCC1 (centres unmarked) [SJ000803757-1] | 58.4 |  |
| CCCN(CCCNc1ccnc2cc(C(F)(F)F)ccc12)Cc1ccc(CC)cc1 [SJ000521009-2, CCCN(CCCNc1ccnc2cc(ccc12)C(F)(F)F)Cc3ccc(CC)cc3] |  | IC50 [1]: > 70 µM |
| COc1ccc(C2Nc3ccccc3C(=O)N2CCCN2CCOCC2)cc1OC(F)F (centres unmarked) [SJ000803760-1] | > 70 |  |
| Clc1ccc2c(NCCCN(Cc3ccccc3)Cc3ccc4[nH]ccc4c3)ccnc2c1 [SJ000520430-1, Clc1ccc2c(NCCCN(Cc3ccccc3)Cc4ccc5[nH]ccc5c4)ccnc2c1] |  | IC50 [1]: 41.7 µM |
| Clc1ccc2c(NCCCNCc3cc4ccccc4s3)ccnc2c1 [SJ000521032-1, Clc1ccc2c(NCCCNCc3cc4ccccc4s3)ccnc2c1] |  | IC50 [1]: > 70 µM |
| CCCN(CCCNc1ccnc2cc(Cl)ccc12)Cc1ccc(-c2ccccc2)cc1 [SJ000523039-1, CCCN(CCCNc1ccnc2cc(Cl)ccc12)Cc3ccc(cc3)c4ccccc4] |  | IC50 [1]: > 70 µM |
| CN(C)c1ccc(NC2=C(Cl)C(=O)c3ccccc3C2=O)cc1 [SJ000109503-1] | 3.3 |  |
| CCCN(CCCNc1ccnc2cc(C(F)(F)F)ccc12)Cc1ccc2[nH]ccc2c1 [SJ000575171-1, CCCN(CCCNc1ccnc2cc(ccc12)C(F)(F)F)Cc3ccc4[nH]ccc4c3] |  | IC50 [1]: 33.2 µM |

| SMILES | IC50 [2] [µM] | other results |
| --- | --- | --- |
| NC1=C(Nc2ccc(Cl)cc2)C(=O)c2ccccc2C1=O [SJ000562630-1] | 53.8 |  |
| CCCCCOc1ccc(N(C(C)=O)C2=C(Cl)C(=O)c3ccccc3C2=O)cc1 [SJ000032724-1] | 28.3 |  |
| COc1cc2nc(N(C)CCCNC(=O)C3CCCO3)nc(N)c2cc1OC (centres unmarked) [SJ000286094-9] | 36.2 |  |
| Cc1ccc(S(=O)(=O)c2nc(-c3cccc([N+](=O)[O-])c3)oc2N2CCOCC2)cc1 [SJ000027482-1] | 9.54 |  |
| O=S(=O)(c1ccc(Cl)cc1)c1nc(-c2cccc(Br)c2)oc1N1CCOCC1 [SJ000027481-1] | 9.2 |  |
| c1coc(CNCCCNc2ccnc3cc(CC4CCCCC4)ccc23)c1 [SJ000311250-1, C(CNCc1occc1)CNc2ccnc3cc(CC4CCCCC4)ccc23] |  | IC50 [1]: 54.9 µM |
| Oc1c(F)cc(F)cc1CN(CCCCNc1ccnc2cc(Cl)ccc12)Cc1ccccc1 [SJ000357506-2, Oc1c(F)cc(F)cc1CN(CCCCNc2ccnc3cc(Cl)ccc23)Cc4ccccc4] |  | IC50 [1]: > 70 µM |
| c1coc(CNCCCNc2ccnc3cc(-c4ccc5c(c4)OCO5)ccc23)c1 [SJ000311290-1, C(CNCc1occc1)CNc2ccnc3cc(ccc23)c4ccc5OCOc5c4] |  | IC50 [1]: > 70 µM |
| FC(F)(F)c1ccc2c(NCCCNCc3cc(Br)cs3)ccnc2c1 [SJ000521056-1, FC(F)(F)c1ccc2c(NCCCNCc3cc(Br)cs3)ccnc2c1] |  | IC50 [1]: > 70 µM |
| CCCN(CCCNc1ccnc2cc(C(F)(F)F)ccc12)CC(CC)CC [SJ000361269-1, CCCN(CCCNc1ccnc2cc(ccc12)C(F)(F)F)CC(CC)CC] |  | IC50 [1]: > 70 µM |
| Cc1ccc(S(=O)(=O)c2nc(-c3ccccc3Cl)oc2N2CC(C)OC(C)C2)cc1 (centres unmarked) [SJ000329066-1] | 13 |  |
| Cc1ccc(C2Nc3ccccc3C(=O)N2CCCN2CCOCC2)cc1 (centres unmarked) [SJ000803768-1] | 65.9 |  |
| Cn1c(=O)c2[nH]c(-c3ccc(S(=O)(=O)O)cc3)nc2n(C)c1=O [SJ000287642-4] | 21.8 |  |
| Cc1ccc(C)c(CN(CCCCNc2ccnc3cc(Cl)ccc23)Cc2ccccc2)c1 [SJ000361209-2, Cc1ccc(C)c(CN(CCCCNc2ccnc3cc(Cl)ccc23)Cc4ccccc4)c1] |  | IC50 [1]: > 70 µM |
| O=C1c2ccccc2NC(c2ccc(F)c(Br)c2)N1CCCN1CCOCC1 (centres unmarked) [SJ000803764-1] | 68 |  |
| CN(C)c1ccc(C2Nc3ccccc3C(=O)N2CCCN2CCOCC2)cc1 (centres unmarked) [SJ000803767-1] | > 70 |  |
| CSc1ccc(C2Nc3ccccc3C(=O)N2CCCN2CCOCC2)cc1 (centres unmarked) [SJ000803762-1] | > 70 |  |
| Clc1ccc2c(NCCCN(Cc3ccccc3)Cc3c[nH]c4ccccc34)ccnc2c1 [SJ000520433-1, Clc1ccc2c(NCCCN(Cc3ccccc3)Cc4c[nH]c5ccccc45)ccnc2c1] |  | IC50 [1]: > 70 µM |
| CCOC(=O)N1CCN(Cc2ccc3c(c2)c2ccccc2n3CC)CC1 [SJ000147352-1] | 29.5 |  |
| CCOc1ccc(N(C(C)=O)C2=C(N)C(=O)c3ccccc3C2=O)cc1 [SJ000558312-2] | 65.7 |  |

Continued, in another order:

| IC50 [2] [µM] | SMILES | other results |
| --- | --- | --- |
| 28.2 | COc1ccc(F)cc1CNCCCNc1ccnc2cc(-c3ccccc3)ccc12 [SJ000311285-1] |  |
| 16.3 | Cc1cc(C)cc(Cc2ccc3c(NCCCNCc4cccc5c4OCO5)ccnc3c2)c1 [SJ000311320-1] |  |
| 10.3 | COc1ccc(F)cc1CNCCCNc1ccnc2cc(-c3cccc4ccccc34)ccc12 [SJ000311277-1] |  |
| 7.65 | COc1cccc(CNCCCNc2ccnc3cc(Oc4ccc(C(C)(C)C)cc4)ccc23)c1O [SJ000311235-1] |  |
| 6.87 | CC(C)(C)c1ccc(-c2ccc3c(NCCCNCc4cccc5c4OCO5)ccnc3c2)cc1 [SJ000311288-1] |  |
| 5.63 | COc1ccc(F)cc1CNCCCNc1ccnc2cc(Oc3cccc(N(C)C)c3)ccc12 [SJ000311233-1] |  |
| 24.6 | COc1cccc(CNCCCNc2ccnc3cc(-c4ccc5c(c4)OCO5)ccc23)c1O [SJ000311291-1] |  |
| 17.6 | COc1ccc(F)cc1CNCCCNc1ccnc2cc(Cc3ccc(F)cc3Cl)ccc12 [SJ000311325-1] |  |
| 4.67 | COc1cccc(CNCCCNc2ccnc3cc(-c4ccc(C(C)(C)C)cc4)ccc23)c1O [SJ000311287-1] |  |
| 40.9 | CCc1ccc(CNCCCNc2ccnc3cc(C(F)(F)F)ccc23)cc1 [SJ000521067-1] |  |
| 31.3 | COc1cc(Cc2ccc3c(NCCCNCc4cccc5c4OCO5)ccnc3c2)cc(OC)c1 [SJ000311312-1] |  |
| 20.7 | COc1cccc(CNCCCNc2ccnc3cc(Oc4ccc(Cl)cc4)ccc23)c1O [SJ000311227-1] |  |
| 35.1 | COc1ccc(F)cc1CNCCCNc1ccnc2cc(Cc3ccc(F)cc3)ccc12 [SJ000311245-1] |  |
| 36.8 | COc1cccc(Oc2ccc3c(NCCCNCc4cc(F)ccc4OC)ccnc3c2)c1 [SJ000311217-1] |  |
| 11 | Clc1cccc(Cl)c1Cc1ccc2c(NCCCNCc3cccc4c3OCO4)ccnc2c1 [SJ000311316-1] |  |
| 16 | c1cc(CNCCCNc2ccnc3cc(CC4CCCCC4)ccc23)c2c(c1)OCO2 [SJ000311252-1] |  |
| 4.62 | COc1ccc(F)cc1CNCCCNc1ccnc2cc(-c3ccc(C(C)(C)C)cc3)ccc12 [SJ000311289-1] |  |
| 33.8 | COc1cc(Cc2ccc3c(NCCCNCc4cc(F)ccc4OC)ccnc3c2)cc(OC)c1 [SJ000311313-1] |  |
| 6.29 | COc1ccc(F)cc1CNCCCNc1ccnc2cc(Oc3ccc(C(C)(C)C)cc3)ccc12 [SJ000311237-1] |  |
| 17.6 | COc1cccc(CNCCCNc2ccnc3cc(Cc4ccc(F)cc4Cl)ccc23)c1O [SJ000311323-1] |  |
| 12.2 | COc1ccc(F)cc1CNCCCNc1ccnc2cc(Cc3c(Cl)cccc3Cl)ccc12 [SJ000311317-1] |  |
| 33.3 | COc1cccc(CNCCCNc2ccnc3cc(-c4ccc(F)cc4)ccc23)c1O [SJ000311239-1] |  |
| 69.1 | COc1ccc(C(F)(F)F)cc1CNCCCNc1ccnc2cc(C(F)(F)F)ccc12 [SJ000521064-1] |  |
| 43.7 | COc1ccc(Oc2ccc3c(NCCCNCc4cccc5c4OCO5)ccnc3c2)cc1 [SJ000311220-1] |  |
